Experimental findings from ChEMBL document CHEMBL1201862, “PubChem BioAssay data set” (2004) are described below.

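Assay format: 96-well plates, 48-hour exposure. The concentration for 50% growth inhibition is given as GI50.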 Calls of active or inactive are those of the source. Cut-off read from the data, not from the text of the source: active = GI50 up to about 1.1 µM and inactive = higher.

Among the test systems are SW-620; MOLT-4; UACC-62; U-251; K562; Malme-3M; NCI-H226; HCT-15; A498; HT-29; RXF 393; HL-60; LOX IMVI; OVCAR-4; OVCAR-5; NCI-H460; M14; SK-OV-3; SF-539; DU-145.
Common to all, as to experiment: inhibition of tumour cell growth, NCI panel, 48 h

`O=S(=O)(Nc1ccccc1)c1ccc(-c2c3nc(c(-c4ccc(S(=O)(=O)Nc5ccccc5)cc4)c4ccc([nH]4)c(-c4ccc(S(=O)(=O)Nc5ccccc5)cc4)c4nc(c(-c5ccc(S(=O)(=O)Nc6ccccc6)cc5)c5ccc2[nH]5)C=C4)C=C3)cc1`: the GI50 in the assay with SW-620, in the assay on MOLT-4, in the assay with UACC-62, in the assay with U-251, in the assay on K562 and in the assay with Malme-3M was > 31.6 µM (inactive) in each case. Besides, the GI50 with NCI-H226 was > 100 µM (inactive); in the assay with HCT-15, above 31.6 µM; with A498, > 31.6 µM (inactive); in the assay on HT-29 it was > 31.6 µM (inactive); in the assay with RXF 393 it was > 31.6 µM (inactive); in the assay with HL-60 it was > 31.6 µM (inactive). The GI50 in the assay on LOX IMVI was > 10 µM (inactive); in the assay with OVCAR-4 it was 12.6 µM (inactive); in the assay with OVCAR-5, > 31.6 µM (inactive); in the assay on NCI-H460, 11.6 µM (inactive); in the assay with M14, 12.6 µM (inactive); in the assay on SK-OV-3 it was > 31.6 µM (inactive). Besides, the GI50 in the assay on SF-539 and in the assay on DU-145 was > 31.6 µM (inactive) throughout.
On to `O=C(O)c1cc(Sc2ccc([N+](=O)[O-])c(C(=O)O)c2)ccc1[N+](=O)[O-]`, for which the GI50 was > 100 µM (inactive) in the assay on SW-620; > 100 µM (inactive) with MOLT-4; > 100 µM (inactive) in the assay on UACC-62; > 100 µM (inactive) in the assay on U-251; > 100 µM (inactive) in the assay with K562; 0.413 µM (active) in the assay with Malme-3M. Further, the GI50 in the assay on NCI-H226 is > 100 µM (inactive); in the assay with HCT-15, above 100 µM; in the assay with A498, > 100 µM (inactive); in the assay with HT-29, > 100 µM (inactive); in the assay with RXF 393 it was > 100 µM (inactive); with HL-60, > 100 µM (inactive). Further, the GI50 with LOX IMVI, in the assay on OVCAR-4, in the assay on OVCAR-5, with NCI-H460, with M14 and in the assay with SK-OV-3 was > 100 µM (inactive) each time. Besides, the GI50 in the assay on SF-539 and in the assay on DU-145 was > 100 µM (inactive) throughout.
As for `COc1cc(OC)c(OC)cc1/C=C\c1ccnc2ccccc12`, the GI50 was 0.679 µM (active) with SW-620; 0.575 µM (active) in the assay on MOLT-4; 0.541 µM (active) in the assay with UACC-62; 0.628 µM (active) in the assay with U-251; 0.282 µM (active) in the assay with K562; 0.7 µM (active) in the assay with Malme-3M. For the same molecule, the GI50 in the assay on NCI-H226 was 0.977 µM (active); in the assay with HCT-15, 0.437 µM; in the assay on A498, 0.522 µM (active); in the assay with HT-29, 0.522 µM (active); with RXF 393, 0.466 µM (active); with HL-60, 0.344 µM (active). The GI50 was 0.61 µM (active) with LOX IMVI; 4.51 µM (inactive) in the assay on OVCAR-4; 7.23 µM (inactive) with OVCAR-5; 0.555 µM (active) in the assay on NCI-H460; 0.574 µM (active) with M14; 0.465 µM (active) with SK-OV-3. The GI50 in the assay with SF-539 was 0.394 µM (active); in the assay with DU-145, 1.01 µM (active).
`O=C1CCCSC(=O)N1Cc1ccccc1`: the GI50 with SW-620 was > 100 µM (inactive); with MOLT-4, > 100 µM (inactive); in the assay on UACC-62 it was > 100 µM (inactive); in the assay on Malme-3M, > 100 µM (inactive); in the assay on NCI-H226, > 100 µM (inactive); in the assay on HCT-15 it was above 100 µM. The GI50 in the assay with A498, in the assay on HT-29, with RXF 393, in the assay with HL-60, with LOX IMVI and with OVCAR-4 was > 100 µM (inactive) in each case. The GI50 in the assay with OVCAR-5, in the assay on NCI-H460, in the assay with M14, in the assay with SK-OV-3, with SF-539 and in the assay with DU-145 was > 100 µM (inactive) each time.
Regarding `Cc1c(N(C)C)ccc2c(=O)c3cccc(CC(=O)O)c3oc12`, the GI50 with SW-620 is > 33.3 µM (inactive); with MOLT-4 it was > 100 µM (inactive); in the assay with UACC-62, > 100 µM (inactive); with U-251, > 100 µM (inactive); in the assay on K562 it was > 100 µM (inactive); in the assay on Malme-3M, > 100 µM (inactive). Besides, the GI50 in the assay on NCI-H226 is > 100 µM (inactive); with HCT-15 it was above 100 µM; with A498 it was > 81.8 µM (inactive); in the assay on HT-29, > 100 µM (inactive); in the assay on RXF 393, > 100 µM (inactive); in the assay with HL-60, 97.9 µM (inactive). Besides, the GI50 with LOX IMVI, in the assay on OVCAR-4, in the assay with OVCAR-5, in the assay with NCI-H460, in the assay with M14 and with SK-OV-3 was > 100 µM (inactive) in each case. The GI50 with SF-539 and in the assay on DU-145 was > 100 µM (inactive) throughout.
On to `COc1ccc(C(C2=C(O)COC2=O)c2cc3c(cc2O)OCO3)cc1OC` (stereo unspecified), for which the GI50 in the assay on SW-620, with MOLT-4, in the assay with UACC-62, with K562, with Malme-3M and with NCI-H226 was > 100 µM (inactive) throughout. Moreover, the GI50 is above 100 µM in the assay with HCT-15; > 100 µM (inactive) in the assay with A498; > 100 µM (inactive) with HT-29; > 100 µM (inactive) in the assay with RXF 393; > 100 µM (inactive) in the assay with HL-60; > 100 µM (inactive) in the assay with LOX IMVI. The GI50 in the assay on OVCAR-4, with OVCAR-5, in the assay with NCI-H460, in the assay on M14, in the assay on SK-OV-3 and with SF-539 was > 100 µM (inactive) in each case. Besides, the GI50 in the assay with DU-145 is > 100 µM (inactive).
On to `Cc1cc2c(cc1C(=O)CCC(=O)O)CC1(C2)Cc2cc(C)c(C(=O)CCC(=O)O)cc2C1`, for which the GI50 with SW-620, in the assay on MOLT-4, with U-251, in the assay on K562, in the assay on Malme-3M and in the assay on NCI-H226 was > 100 µM (inactive) throughout. In addition, the GI50 in the assay with HCT-15 is above 100 µM; with A498, > 100 µM (inactive); with HT-29, > 100 µM (inactive); with RXF 393, > 100 µM (inactive); with HL-60, > 100 µM (inactive); with LOX IMVI it was > 100 µM (inactive). In addition, the GI50 in the assay on OVCAR-4, in the assay on OVCAR-5, with NCI-H460, with M14, in the assay on SK-OV-3 and with SF-539 was > 100 µM (inactive) each time. Also, the GI50 in the assay with DU-145 is > 100 µM (inactive).
